Measurements as given in US9926297B2, “Bicyclic AZA compounds as muscarinic M1 receptor and/or M4 receptor agonists” (Heptares Therapeutics Limited, priority 2014, dated 2018).

Columns and labels:
[1] = target: T1, human muscarinic M4 receptor (Homo sapiens, UniProt P08173); assay: Alphascreen Surefire phospho-ERK1/2 functional assay, M4; format: cell-based; settings: for EC50 / % Emax cf. ACh, M4: CHO cells stably expressing human M4; for EC50: phospho-ERK1/2, * = variable results, read-out: pEC50 M4 (converted); for Emax: CHO, read-out: % Emax cf. ACh, M4, CHO cells stably expressing human M4; for Emax / % Emax cf. ACh, M4: relative to ACh
T1 construct: expressed in transfected cells
T1 sequence (P08173 1-479): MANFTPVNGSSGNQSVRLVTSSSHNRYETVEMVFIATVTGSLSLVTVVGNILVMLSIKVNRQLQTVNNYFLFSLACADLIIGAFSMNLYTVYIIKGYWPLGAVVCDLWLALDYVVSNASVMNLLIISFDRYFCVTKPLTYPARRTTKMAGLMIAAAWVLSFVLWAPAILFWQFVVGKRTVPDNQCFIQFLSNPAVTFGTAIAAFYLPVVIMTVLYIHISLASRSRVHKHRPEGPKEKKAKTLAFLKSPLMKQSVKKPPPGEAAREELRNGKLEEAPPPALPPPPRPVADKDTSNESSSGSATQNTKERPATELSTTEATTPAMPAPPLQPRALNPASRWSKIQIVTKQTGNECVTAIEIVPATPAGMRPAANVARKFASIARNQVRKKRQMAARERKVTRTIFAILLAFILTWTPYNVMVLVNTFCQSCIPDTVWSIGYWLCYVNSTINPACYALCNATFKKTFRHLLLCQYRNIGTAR

[2] = target: human muscarinic M3 receptor (Homo sapiens, UniProt P20309); assay: Alphascreen Surefire phospho-ERK1/2 functional assay, M3; settings: for Emax: CHO, read-out: % Emax cf. ACh, M3, CHO cells stably expressing human M3; for Emax / % Emax cf. ACh, M3: relative to ACh; for EC50: pEC50 M3, CHO cells stably expressing human M3; for EC50 / pEC50 M3: phospho-ERK1/2, * = variable results; for pEC50 M3 / % Emax cf. ACh, M3: CHO cells stably expressing human M3
Chain of human muscarinic M3 receptor (P20309 whole entry): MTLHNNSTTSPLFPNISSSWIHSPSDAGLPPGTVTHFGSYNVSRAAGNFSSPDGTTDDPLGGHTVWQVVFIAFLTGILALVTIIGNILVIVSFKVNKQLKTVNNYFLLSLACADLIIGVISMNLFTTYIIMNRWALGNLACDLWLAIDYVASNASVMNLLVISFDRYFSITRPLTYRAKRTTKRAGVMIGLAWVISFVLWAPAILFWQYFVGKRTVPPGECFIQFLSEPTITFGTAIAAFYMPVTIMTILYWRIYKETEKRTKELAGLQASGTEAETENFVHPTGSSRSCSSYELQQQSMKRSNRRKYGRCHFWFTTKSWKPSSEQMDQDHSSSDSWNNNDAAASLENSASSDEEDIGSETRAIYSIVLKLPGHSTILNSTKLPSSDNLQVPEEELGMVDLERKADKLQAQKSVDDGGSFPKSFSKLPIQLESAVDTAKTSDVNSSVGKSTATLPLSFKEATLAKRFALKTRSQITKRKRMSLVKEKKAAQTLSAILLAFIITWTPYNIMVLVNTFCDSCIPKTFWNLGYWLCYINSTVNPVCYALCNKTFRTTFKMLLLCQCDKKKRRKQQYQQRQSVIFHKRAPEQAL

[3] = target: T2, human muscarinic M1 receptor (Homo sapiens, UniProt P11229); assay: Alphascreen Surefire phospho-ERK1/2 functional assay, M1; format: cell-based; settings: for EC50 / % Emax cf. ACh, M1: CHO cells stably expressing human M1; for EC50: phospho-ERK1/2, * = variable results, read-out: pEC50 M1 (converted); for Emax: CHO, read-out: % Emax cf. ACh, M1, CHO cells stably expressing human M1; for Emax / % Emax cf. ACh, M1: relative to ACh
T2 sequence (P11229 1-460): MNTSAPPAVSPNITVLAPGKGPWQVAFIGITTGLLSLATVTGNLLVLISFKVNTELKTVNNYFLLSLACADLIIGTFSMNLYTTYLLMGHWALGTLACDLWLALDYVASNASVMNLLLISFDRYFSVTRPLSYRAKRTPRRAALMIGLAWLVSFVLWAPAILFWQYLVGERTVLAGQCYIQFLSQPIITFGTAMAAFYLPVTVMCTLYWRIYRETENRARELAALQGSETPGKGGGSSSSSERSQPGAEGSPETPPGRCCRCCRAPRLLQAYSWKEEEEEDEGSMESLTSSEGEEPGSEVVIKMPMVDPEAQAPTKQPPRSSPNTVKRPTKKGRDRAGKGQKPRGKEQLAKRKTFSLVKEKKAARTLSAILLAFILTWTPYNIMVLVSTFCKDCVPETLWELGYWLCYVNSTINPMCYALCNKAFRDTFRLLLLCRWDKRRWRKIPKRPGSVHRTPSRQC

[4] = target: T3, human muscarinic M2 receptor (Homo sapiens, UniProt P08172); assay: Alphascreen Surefire phospho-ERK1/2 functional assay, M2; settings: for Emax: CHO, read-out: % Emax cf. ACh, M2, CHO cells stably expressing human M2; for Emax / % Emax cf. ACh, M2: relative to ACh; for pEC50 M2 / % Emax cf. ACh, M2: CHO cells stably expressing human M2; for pEC50 M2: phospho-ERK1/2, * = variable results
T3 sequence (P08172 1-466): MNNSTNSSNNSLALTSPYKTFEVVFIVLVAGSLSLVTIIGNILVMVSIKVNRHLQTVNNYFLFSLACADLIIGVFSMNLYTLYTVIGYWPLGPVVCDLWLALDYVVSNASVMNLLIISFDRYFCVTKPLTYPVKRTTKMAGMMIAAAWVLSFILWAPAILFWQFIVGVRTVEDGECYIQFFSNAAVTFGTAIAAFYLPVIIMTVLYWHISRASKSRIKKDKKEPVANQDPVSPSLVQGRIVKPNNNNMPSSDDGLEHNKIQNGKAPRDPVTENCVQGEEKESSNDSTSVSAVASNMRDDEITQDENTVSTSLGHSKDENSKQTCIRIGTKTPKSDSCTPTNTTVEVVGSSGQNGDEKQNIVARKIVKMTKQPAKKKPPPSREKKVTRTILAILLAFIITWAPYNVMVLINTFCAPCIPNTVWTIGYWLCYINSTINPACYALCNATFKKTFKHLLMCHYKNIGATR

| EC50 [1] | Emax [1] | Emax [2] | EC50 [2] | EC50 [3] | Emax [3] | EC50 [4] | Emax [4] | % Emax cf. ACh, M4 [1] | pEC50 M3 [2] | % Emax cf. ACh, M3 [2] | % Emax cf. ACh, M1 [3] | pEC50 M2 [4] | % Emax cf. ACh, M2 [4] | SMILES |
| --- | --- | --- | --- | --- | --- | --- | --- | --- | --- | --- | --- | --- | --- | --- |
| 5.01 nM | 100% | 8% | > 20 µM | 316 nM | 71% | > 20 µM | 4% |  |  |  |  |  |  | CCOC(=O)N1CCC2(CC(N3CCC([C@@H]4CCCN4C(=O)NCCF)CC3)C2)C1 (single isomer, unassigned) [2-44 Isomer 2] |
| 3.16 nM | 108% | 7% | > 20 µM | 126 nM | 93% | > 20 µM | 7% |  |  |  |  |  |  | CCOC(=O)N1CCC2(CC(N3CCC([C@@H]4CCCN4C(=O)NCCOC)CC3)C2)C1 (single isomer, unassigned) [2-31 Isomer 2] |
| 5.01 nM | 111% | 5% | > 20 µM | 251 nM | 67% | > 20 µM | 5% |  |  |  |  |  |  | CCOC(=O)N1CCC2(CC(N3CCC([C@@H]4CCCN4C(=O)NCC(F)F)CC3)C2)C1 (single isomer, unassigned) [2-45 Isomer 2] |
| 6.31 nM | 126% | 7% | > 20 µM | 79.4 nM | 126% | > 20 µM | 80% |  |  |  |  |  |  | CCOC(=O)N1CCC2(CC(N3CCC(n4ccc(C)n4)CC3)C2)C1 (single isomer, unassigned) [1-44 Isomer 2, ethyl 2-[4-(3-methyl-1H-pyrazol-1-yl)piperidin-1-yl]-6-azaspiro[3.4]octane-6-carboxylate] |
| 12.6 nM |  |  |  | 50.1 nM |  |  |  | 107% | < 4.7 | 14% | 88% | < 4.7 | 16% | CCOC(=O)N1CCC2(CC(N3CCC(C4c5ccccc5CN4C(=O)NC)CC3)C2)C1 (single isomer, unassigned) [2-76 Isomer 2, ethyl 2-(4-(2-(methylcarbamoyl)-isoindolin-1-yl)piperidin-1-yl)-6-azaspiro[3.4]octane-6-carboxylate] |
| 20 nM |  |  |  | > 20000 nM |  |  |  | 65% | < 4.7 | 5% | 4% | < 4.7 | 5% | CCOC(=O)N1CCC2(CC(N3CCC([C@@H]4CCCN4C(=O)NOC)CC3)C2)C1 (single isomer, unassigned) [2-33 Isomer 2] |
| 31.6 nM | 105% | 9% | > 20 µM | 398 nM | 55% | > 20 µM | 7% |  |  |  |  |  |  | CCOC(=O)N1CCC2(CC(N3CCC(c4ncco4)CC3)C2)C1 (single isomer, unassigned) [1-23 Isomer 2, ethyl 2-[4-(1,3-oxazol-2-yl)piperidin-1-yl]-6-azaspiro[3.4]octane-6-carboxylate] |
| 20 nM | 82% |  | > 20 µM | 251 nM | 36% | > 20 µM |  |  |  |  |  |  |  | CCOC(=O)N1CCC2(CC(N3CCC(N4CCC[C@@H]4C(=O)OC)CC3)C2)C1 (single isomer, unassigned) [2-84 Isomer 2] |
| 7.94 nM | 113% | 10% | > 20 µM | 631 nM | 44% | > 20 µM | 3% |  |  |  |  |  |  | CCNC(=O)N1CCCC1C1CCN(C2CC3(CCN(C(=O)OCC)C3)C2)CC1 (single isomer, unassigned) [2-19 Isomer 2, ethyl 2-{4-[1-(ethylcarbamoyl)pyrrolidin-2-yl]piperidin-1-yl}-6-azaspiro[3.4]octane-6-carboxylate] |
| 15.8 nM | 91% | 7% | > 20 µM | > 20000 nM | 43% | > 20 µM | 3% |  |  |  |  |  |  | CCOC(=O)N1CCC2(CC(N3CCC(C4CCCN4C(=O)OCC)CC3)C2)C1 (single isomer, unassigned) [2-14 Isomer 2, ethyl 2-{4-[1-(ethoxycarbonyl)pyrrolidin-2-yl]piperidin-1-yl}-6-azaspiro[3.4]octane-6-carboxylate] |
| 316 nM | 63% |  | > 20 µM | > 20000 nM | 6% | > 20 µM |  |  |  |  |  |  |  | CCOC(=O)N1CCC2(CC(N3CCC(C4CCCN4)CC3)C2)C1 (single isomer, unassigned) [2-1 Isomer 2, ethyl 2-[4-(pyrrolidin-2-yl)piperidin-1-yl]-6-azaspiro[3.4]octane-6-carboxylate] |
| 15.8 nM | 97% | 13% | > 20 µM | 501 nM | 34% | > 20 µM | 52% |  |  |  |  |  |  | CCOC(=O)N1CCC2(CC(N3CCC([C@@H]4CCCN4C(=O)NC4CCC4)CC3)C2)C1 (single isomer, unassigned) [2-30 Isomer 2] |
| 20 nM | 80% | 26% | > 20 µM | 316 nM | 80% | 1.58 µM | 56% |  |  |  |  |  |  | COC(=O)N1CCC2(CC(N3CCC(n4ccc(C)n4)CC3)C2)C1 (single isomer, unassigned) [1-45 Isomer 2, methyl 2-[4-(3-methyl-1H-pyrazol-1-yl)piperidin-1-yl]-6-azaspiro[3.4]octane-6-carboxylate] |
| 63.1 nM | 71% | 38% | 0.0631 µM | 1260 nM | 128% | > 20 µM | 57% |  |  |  |  |  |  | COC(=O)N1CCC2(CC(N3CCC(c4nccn4C)CC3)C2)C1 (single isomer, unassigned) [1-6 Isomer 2, methyl 2-[4-(1-methyl-1H-imidazol-2-yl)piperidin-1-yl]-6-azaspiro[3.4]octane-6-carboxylate] |
| 15.8 nM | 81% | 19% | > 20 µM | > 20000 nM | 7% | ≥ 20 µM | 82% |  |  |  |  |  |  | CCOC(=O)N1CCC2(CC(N3CCC(c4ccnn4CC)CC3)C2)C1 (single isomer, unassigned) [1-47 Isomer 2, ethyl 2-[4-(1-ethyl-1H-pyrazol-5-yl)piperidin-1-yl]-6-azaspiro[3.4]octane-6-carboxylate] |
| 20 nM | 100% | 3% | > 20 µM | 200 nM | 26% | > 20 µM | 4% |  |  |  |  |  |  | CCOC(=O)N1CCC2(CC(N3CCC(N4CCC[C@@H]4C(F)F)CC3)C2)C1 (single isomer, unassigned) [2-103 Isomer 2] |
| 316 nM | 93% | 29% | > 20 µM | 316 nM | 114% | > 20 µM | 8% |  |  |  |  |  |  | CCOC(=O)N1CCC2(CC(N3CCC(N4C(=O)OC[C@@H]4C(C)C)CC3)C2)C1 (single isomer, unassigned) [2-123 Isomer 2] |
